Results published in patent US20250288535A1, “INSTANT NANOPARTICLE COMPOSITION AND PREPARATION METHOD THEREFOR” (CSPC ZHONGQI PHARMACEUTICAL TECHNOLOGY (SHIJIAZHUANG) CO., …, priority 2022, published 2025).

Experiment: Tissue distribution in JIMT-1 tumor-bearing mice
Type: in vivo
Details: 20 mg/kg tail vein injection
Description: 48 human breast cancer JIMT-1 tumor-bearing mice were randomly divided into 2 experimental groups, with a total of 6 mice in each experimental group at each time point. Both of the two preparations were administered to the respective experimental mice at a dose of 20 mg/kg through tail vein injection. Blood samples were collected from each group at 0.25, 1, 3 and 24 hours after administration and the mice were sacrificed immediately. Tumor, heart, liver, spleen, lung, kidney, stomach, small intestine, pancreas and ovary tissues were dissected and subjected to pretreatments such as homogenization, the drug concentration in each tissue sample was determined by protein precipitation-LC/MS/MS method, and the main pharmacokinetic parameters were calculated by using the non-compartmental model of Phoenix WinNonlin 8.0 software (Pharsight, USA).

CC(=O)O[C@H]1C(=O)[C@@]2(C)[C@H]([C@H](OC(=O)c3ccccc3)[C@]3(O)C[C@H](OC(=O)[C@H](O)[C@@H](NC(=O)c4ccccc4)c4ccccc4)C(C)=C1C3(C)C)[C@]1(OC(C)=O)CO[C@@H]1C[C@@H]2O [paclitaxel]
tissue with the highest exposure: highest exposure in the liver
